Patent US20240246815A1, “CHLORINE PEROXIDE RADICAL, AND PRODUCTION METHOD, COMPOSITION, QUANTIFICATION METHOD AND USE THEREOF” (SANKEI CO., LTD., priority 2021, published 2024)

Experiment: Longevity of ESR signals in aqueous solution obtained by adding an acid to sodium chlorite
Type: physicochemical
Settings: relatively low concentration of HCl (0.1 M sodium chlorite with 0.08 M HCl 1:1), stored in a dark location
Experimental: An aqueous solution obtained by adding an acid to sodium chlorite was prepared by mixing 0.1 M sodium chlorite with 2.5 M hydrochloric acid to achieve a desired concentration by using ion exchange water. The concentration of sodium chlorite was measured by standard iodometry.
An aqueous solution obtained by adding an acid to sodium chlorite was placed in a glass capillary tube with a length of 100 mm and inner diameter of 2 mm. The glass capillary was transferred to a capillary cell attached to an ESR cavity, and ESR measurement was taken by using an X band spectrometer (JEOL FA-100ESR) operated at 9.43 GHz at room temperature. The magnetic field was modulated at 100 KHz. […] The signal intensity was normalized with respect to an MnO marker, and the concentration of stable radical products was determined based on signal height by using an external standard TEMPOL. Radical species found in an aqueous solution obtained by adding an acid to sodium chlorite was quantified by using an integrated software for determining a spectral region mounted onto an ESR device.
Free radicals in an aqueous solution obtained by adding an acid to sodium chlorite were measured by using ESR measurement. […] The solution was measured 4 minutes later by ESR spectroscopy. […]

## chlorine peroxide radical
  ESR signals remained stable: one
